According to patent publication US20060205733A1, “Endothelin a receptor antagonists in combination with phosphodiesterase 5 inhibitors and uses thereof” (Encysive Pharmaceuticals, priority 2004, published 2006):
Counter-ions that a name gives are not always drawn. Like-named read-outs stand apart in the source and are kept apart here.

Key:
ETB [1] = molecular target: T1, ETB (Homo sapiens, UniProt P24530); details: read-out: Binding K1 (nM) to ETB; cited from earlier work
T1 sequence (P24530 27-442): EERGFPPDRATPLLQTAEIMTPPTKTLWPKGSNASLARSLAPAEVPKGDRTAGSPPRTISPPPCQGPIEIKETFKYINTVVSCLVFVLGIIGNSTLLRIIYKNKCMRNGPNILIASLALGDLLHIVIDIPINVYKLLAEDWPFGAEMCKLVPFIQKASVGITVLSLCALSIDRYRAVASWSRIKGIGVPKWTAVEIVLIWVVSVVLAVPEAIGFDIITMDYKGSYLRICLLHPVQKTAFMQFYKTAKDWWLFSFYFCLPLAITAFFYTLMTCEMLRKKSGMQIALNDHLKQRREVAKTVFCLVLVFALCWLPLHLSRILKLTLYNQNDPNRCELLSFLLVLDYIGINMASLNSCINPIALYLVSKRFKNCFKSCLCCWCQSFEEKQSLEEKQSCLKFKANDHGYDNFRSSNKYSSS

bile salt export pump = bile salt export pump (Homo sapiens, UniProt O95342); details: cited from earlier work
cytochrome P450 enzymes = details: in vivo; cited from earlier work
[2] = in vivo; cited from earlier work
ETA [3] = molecular target: T2, ETA (Homo sapiens, UniProt P25101); details: cited from earlier work; for Selectivity: ETA versus ETB, Table 2
T2 sequence (P25101 21-427): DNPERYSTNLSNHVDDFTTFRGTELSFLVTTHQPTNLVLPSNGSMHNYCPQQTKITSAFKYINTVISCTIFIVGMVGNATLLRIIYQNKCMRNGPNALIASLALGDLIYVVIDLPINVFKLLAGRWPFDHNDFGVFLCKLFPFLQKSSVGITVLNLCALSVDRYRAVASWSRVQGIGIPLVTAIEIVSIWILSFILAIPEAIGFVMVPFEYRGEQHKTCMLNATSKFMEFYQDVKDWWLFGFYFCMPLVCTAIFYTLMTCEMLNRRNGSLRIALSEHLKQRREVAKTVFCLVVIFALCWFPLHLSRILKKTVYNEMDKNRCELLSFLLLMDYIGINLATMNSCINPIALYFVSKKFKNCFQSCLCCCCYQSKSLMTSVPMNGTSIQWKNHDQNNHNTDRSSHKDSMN

[4] = Pharmacokinetic drug interaction study, sitaxsentan and sildenafil; type: in vivo, human; details: for Cmax: healthy subjects; for Cmax / AUC0-t / AUC∞ / CL/F / t½ / λz / AUC(0-inf) / Vd/F / half-life: mean ± SD; for Tmax: median; for Vd/F: read-out: Vz/F; for half-life: read-out: t½ (converted); for Effect of sildenafil administration on sitaxsentan levels / pharmacokinetics: single 100 mg sildenafil on day 7 of 100 mg sitaxsentan daily
Method: A pharmacokinetic drug interaction study was performed using 24 individuals. In the study, a group of 24 normal, healthy volunteers participated in two treatment periods. […] During the other treatment period, the subjects received placebo for seven days and 100 mg of VIAGRA on the seventh day. Twelve subjects were randomly assigned to each treatment period. When the subjects finished one treatment period, they were switched to the other treatment period.
Samples were drawn (in duplicate) once on days 1, 3, 5 and 6; 15 times on day 7 and once again on day 8 for each treatment period. The samples were stored at a nominal temperature of −20° C. for a duration not exceeding 38 days. All samples were analyzed with a set of calibration standards and low, medium and high concentration Quality Control samples.

[5] = in vivo; cited from earlier work; remark: listed apart in the source
ETA [6] = molecular target: T2, ETA; details: cited from earlier work
cytochrome P450 3A4 = molecular target: T3, cytochrome P450 3A4 (Homo sapiens, UniProt P08684); assay: Cytochrome P450 3A4 inhibition in cultured hepatocytes; type: in vitro ADME
T3 construct: endogenous in cells; host or cells: cultured hepatocytes

[7] = in vivo; cited from earlier work; remark: listed apart in the source
ETB [8] = molecular target: T1, ETB; details: concentrations up to 100 μM; cited from earlier work
ETA [9] = molecular target: T4, ETA (Sus scrofa, UniProt Q29010); details: read-out: IC50, inhibition of 125I-labeled endothelin-1 binding, cited from earlier work
T4 construct: from tissue; host or cells: aortic smooth muscle, ventricle membranes, cultured aortic smooth muscle cells
T4 sequence (Q29010 21-427): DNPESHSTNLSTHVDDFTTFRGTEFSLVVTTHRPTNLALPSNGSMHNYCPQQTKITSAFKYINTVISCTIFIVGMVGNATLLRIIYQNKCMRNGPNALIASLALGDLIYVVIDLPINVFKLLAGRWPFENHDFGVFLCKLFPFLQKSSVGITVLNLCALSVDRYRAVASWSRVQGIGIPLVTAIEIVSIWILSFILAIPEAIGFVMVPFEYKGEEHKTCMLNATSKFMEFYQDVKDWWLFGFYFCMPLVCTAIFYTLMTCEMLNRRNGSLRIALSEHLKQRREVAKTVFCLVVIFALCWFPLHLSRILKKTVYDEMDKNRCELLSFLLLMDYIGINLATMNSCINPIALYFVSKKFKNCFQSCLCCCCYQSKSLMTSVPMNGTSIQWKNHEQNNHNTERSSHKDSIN

[10] = read-out: Binding K1 (nM) to ETA
[11] = single 100 mg oral sildenafil after 100 mg sitaxsentan daily for seven days
[12] = single 100 mg oral sildenafil after placebo daily for seven days
[13] = sitaxsentan versus placebo pretreatment, natural log-transformed data
[14] = human, plasma, po, 100 mg, single 100 mg oral sildenafil after 100 mg sitaxsentan daily for seven days
[15] = human, plasma, po, 100 mg, single 100 mg oral sildenafil after placebo daily for seven days

Sequence of bile salt export pump (O95342 whole entry): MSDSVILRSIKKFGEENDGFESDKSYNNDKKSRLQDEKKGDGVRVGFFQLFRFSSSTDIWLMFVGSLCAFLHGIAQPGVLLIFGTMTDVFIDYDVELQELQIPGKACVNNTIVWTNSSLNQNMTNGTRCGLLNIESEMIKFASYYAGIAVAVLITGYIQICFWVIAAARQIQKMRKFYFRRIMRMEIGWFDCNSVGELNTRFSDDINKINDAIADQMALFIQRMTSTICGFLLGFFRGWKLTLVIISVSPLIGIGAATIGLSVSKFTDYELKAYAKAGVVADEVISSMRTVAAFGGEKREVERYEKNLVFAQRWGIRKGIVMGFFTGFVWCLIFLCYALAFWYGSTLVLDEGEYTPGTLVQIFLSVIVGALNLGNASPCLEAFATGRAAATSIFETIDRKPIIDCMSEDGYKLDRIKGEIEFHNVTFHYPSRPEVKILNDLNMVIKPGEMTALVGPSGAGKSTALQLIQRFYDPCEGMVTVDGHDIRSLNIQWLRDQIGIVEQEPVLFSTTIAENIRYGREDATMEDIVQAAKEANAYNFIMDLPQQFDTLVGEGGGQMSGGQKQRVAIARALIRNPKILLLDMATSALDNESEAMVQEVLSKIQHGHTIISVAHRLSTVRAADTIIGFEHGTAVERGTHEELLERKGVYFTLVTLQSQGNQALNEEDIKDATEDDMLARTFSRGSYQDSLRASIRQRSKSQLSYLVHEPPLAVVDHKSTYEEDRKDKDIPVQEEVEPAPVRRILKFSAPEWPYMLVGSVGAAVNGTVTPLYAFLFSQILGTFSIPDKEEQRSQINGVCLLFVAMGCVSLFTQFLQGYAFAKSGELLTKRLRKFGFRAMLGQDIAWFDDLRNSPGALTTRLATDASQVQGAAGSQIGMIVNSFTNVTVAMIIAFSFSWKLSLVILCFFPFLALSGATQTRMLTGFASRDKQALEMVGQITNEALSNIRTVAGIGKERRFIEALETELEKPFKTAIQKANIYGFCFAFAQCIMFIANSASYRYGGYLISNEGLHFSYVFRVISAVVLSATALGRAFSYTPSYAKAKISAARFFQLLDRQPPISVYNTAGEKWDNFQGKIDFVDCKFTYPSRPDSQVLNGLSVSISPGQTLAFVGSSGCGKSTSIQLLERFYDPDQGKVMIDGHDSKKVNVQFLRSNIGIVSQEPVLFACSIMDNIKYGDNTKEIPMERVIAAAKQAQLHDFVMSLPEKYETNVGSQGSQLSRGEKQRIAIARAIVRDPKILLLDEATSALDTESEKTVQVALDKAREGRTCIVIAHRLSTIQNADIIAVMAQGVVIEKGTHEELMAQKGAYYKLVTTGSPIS
T3 sequence (P08684 whole entry): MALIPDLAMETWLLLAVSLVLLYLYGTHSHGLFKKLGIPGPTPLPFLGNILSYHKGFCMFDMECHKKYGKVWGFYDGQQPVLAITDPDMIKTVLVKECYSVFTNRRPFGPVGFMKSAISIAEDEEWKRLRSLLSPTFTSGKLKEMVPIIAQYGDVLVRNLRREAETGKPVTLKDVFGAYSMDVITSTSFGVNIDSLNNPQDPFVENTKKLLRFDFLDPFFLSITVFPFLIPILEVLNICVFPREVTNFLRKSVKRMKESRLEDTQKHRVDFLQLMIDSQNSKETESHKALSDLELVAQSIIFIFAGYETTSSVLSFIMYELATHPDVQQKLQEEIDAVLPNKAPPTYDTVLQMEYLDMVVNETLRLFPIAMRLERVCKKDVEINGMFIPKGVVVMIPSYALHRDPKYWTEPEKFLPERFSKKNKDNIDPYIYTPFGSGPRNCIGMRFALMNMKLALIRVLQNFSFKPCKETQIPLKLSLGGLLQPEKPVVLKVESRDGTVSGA

Compound: Cc1noc(NS(=O)(=O)c2cccc3c(N(C)C)cccc23)c1C [BMS-182874]
- Ki (ETB [1]): > 50000 nM

Compound: COc1ccccc1Oc1c(NS(=O)(=O)c2ccc(C(C)(C)C)cc2)nc(-c2ncccn2)nc1OCCO [Bosentan]
- Effect on bile salt (bile salt export pump): Inhibits bile salt
- Induction of cytochrome P450 enzymes (cytochrome P450 enzymes): Causes inhibition,
- Metabolism [2]: Through 3A4 and 2C9
- Route of elimination [2]: Hepatic
- t1/2 [2]: 5 h

Compound: CCCCc1ccc2c(n1)[C@@H](c1ccc(OC)cc1C[C@H](C)C(=O)O)[C@H](C(=O)O)[C@H]2c1ccc2c(c1)OCO2 [J-104132]
- Ki (ETB [1]): 0.1 nM
- Selectivity (ETA [3]): 2.9
- Ki (ETA [3]; [10]): 0.034 nM

Compound: COc1cc(OC)nc(O[C@H](C(=O)O)C(OC)(c2ccccc2)c2ccccc2)n1 [LU-135252]
- Ki (ETB [1]): 184 nM
- Selectivity (ETA [3]): 130
- Ki (ETA [3]; [10]): 1.4 nM

Compound: CCCc1nn(C)c2c(=O)[nH]c(-c3cc(S(=O)(=O)N4CCNCC4)ccc3OCC)nc12 [N-Desmethyl Sildenafil]
- Effect of sitaxsentan on levels of the active metabolite ([4]; in the presence of sitaxsentan): No effects
- Cmax [4, 11]: 104 ± 40.8 ng/mL
- AUC0-t [4, 11]: 389 ± 105 ng·h/mL
- AUC∞ [4, 11]: 425 ± 115 ng·h/mL
- CL/F [4, 11]: 529 ± 164 mL/min
- t½ [4, 11]: 5.14 ± 2.13 h
- λz [4, 11]: 0.1544 ± 0.0552 h⁻¹
- Tmax [4, 11]: 1.00 h
- Cmax [4, 12]: 109 ± 53.1 ng/mL
- AUC0-t [4, 12]: 372 ± 107 ng·h/mL
- AUC∞ [4, 12]: 440 ± 112 ng·h/mL
- CL/F [4, 12]: 524 ± 234 mL/min
- t½ [4, 12]: 05.1 ± 1.63 h
- λz [4, 12]: 0.1506 ± 0.0569 h⁻¹
- Tmax [4, 12]: 1.00 h
- AUC0-t, geometric mean ratio (%) estimate [4, 13]: 112.43%
- AUC∞, geometric mean ratio (%) estimate [4, 13]: 105.78%
- CL/F, geometric mean ratio (%) estimate [4, 13]: 88.95%
- Cmax, geometric mean ratio (%) estimate [4, 13]: 100.70%
- Vz/F, geometric mean ratio (%) estimate [4, 13]: 94.89%

Compound: COc1ccccc1Oc1c(NS(=O)(=O)c2ccc(C)cn2)nc(-c2ccnc(-c3nnn[nH]3)c2)nc1OCCO [Ro-61.1790]
- Ki (ETB [1]): > 130 nM
- Selectivity (ETA [3]): 1000
- Ki (ETA [3]; [10]): 0.13 nM

Compound: CC1(C)CC[C@]2(C(=O)[O-])CC[C@]3(COC(=O)/C=C/c4cc([O-])ccc4NC(=O)/C=C/C(=O)O)C(=CC[C@@H]4[C@@]5(C)CCC(=O)C(C)(C)[C@@H]5CC[C@]43C)[C@@H]2C1.[Na+].[Na+] [S-0139]
- Ki (ETB [1]): 1000 nM
- Selectivity (ETA [3]): 1000
- Ki (ETA [3]; [10]): 1 nM

Compound: CCCOc1ccc2c(c1)[C@@H](c1ccc(OC)cc1OCC(=O)O)[C@H](C(=O)O)[C@H]2c1ccc2c(c1)OCO2 [SB-209670]
- Selectivity (ETA [3]): 90

Compound: CCCOc1ccc2c(c1)[C@@H](c1ccc(OC)cc1OCCO)[C@H](C(=O)O)[C@H]2c1ccc2c(c1)OCO2 [SB-217242]
- Selectivity (ETA [3]): 101

Compound: CCCc1nn(C)c2c(=O)[nH]c(-c3cc(S(=O)(=O)N4CCN(C)CC4)ccc3OCC)nc12 [Sildenafil, 1-[[3-(6,7-dihydro-1-methyl-7-oxo-3-propyl-1H-pyrazolo[4,3-d]pyrimidin-5-yl)-4-ethoxyphenyl]sulfonyl]-4-methylpiperazine citrate]
- Cmax ([4]; human, plasma, po, 100 mg, single 100 mg oral sildenafil after 100 mg sitaxsentan daily for seven days, read-out: Cmax): 440 ± 232 ng/mL
- AUC(0-inf) [4, 14]: 1650 ng·h/mL
- AUC0-t ([4]; human, plasma, po, 100 mg, single 100 mg oral sildenafil after 100 mg sitaxsentan daily for seven days, read-out: AUC0-t): 1580 ng·h/mL
- Vd/F [4, 14]: 34.8 ± 11.5 L
- half-life [4, 14]: 2.82 ± 0.45 h
- Tmax ([4]; human, plasma, po, 100 mg, single 100 mg oral sildenafil after 100 mg sitaxsentan daily for seven days, read-out: Tmax): 1.25 h
- Cmax ([4]; human, plasma, po, 100 mg, single 100 mg oral sildenafil after placebo daily for seven days, read-out: Cmax): 377 ± 208 ng/mL
- AUC(0-inf) [4, 15]: 1300 ng·h/mL
- AUC0-t ([4]; human, plasma, po, 100 mg, single 100 mg oral sildenafil after placebo daily for seven days, read-out: AUC0-t): 1220 ng·h/mL
- Vd/F [4, 15]: 43.6 ± 18.9 L
- half-life [4, 15]: 2.76 ± 0.45 h
- Tmax ([4]; human, plasma, po, 100 mg, single 100 mg oral sildenafil after placebo daily for seven days, read-out: Tmax): 1 h
- Increase of AUC∞ (area under the plasma concentration/time curve) ([4]; in the presence of sitaxsentan): 28%
- Increase of Cmax (maximum concentration) ([4]; in the presence of sitaxsentan): 18%
- CL/F [4, 11]: 147 ± 56.4 mL/min
- λz [4, 11]: 0.2514 ± 0.0364 h⁻¹
- CL/F [4, 12]: 184 ± 69.0 mL/min
- λz [4, 12]: 0.2584 ± 0.0444 h⁻¹

Compound: Cc1cc2c(cc1CC(=O)c1sccc1S(=O)(=O)Nc1onc(C)c1Cl)OCO2 [Sitaxsentan]
- Effect on bilirubin [5]: No effect.
- Ki (ETB [1]): > 4300 nM
- Selectivity for ETA:ETB (ETA [6]; Table 4): 6500
- ETA:ETB selectivity ratio (ETA [6]; based upon in vitro receptor affinity ratios): 6500
- Ki (ETA [6]; read-out: Intrinsic potency to ETA (Ki)): 0.45 nM
- Effect on bile salt (bile salt export pump): Does not accumulate
- Selectivity (ETA [3]): 10,000
- Effect of sildenafil administration on sitaxsentan levels / pharmacokinetics ([4]; listed as sitaxsentan): did not alter sitaxsentan levels
- Induction of cytochrome P450 enzymes (cytochrome P450 enzymes): No induction
- Metabolism [2]: Through 3A4 and 2C9
- t1/2 [2]: 10 h

Compound: Cc1ccc(-c2c(NS(=O)(=O)c3ccc(C(C)(C)CO)cc3)ncnc2OCCOc2ncc(Br)cn2)cc1 [T-0201]
- Ki (ETA [3]; [10]): 0.015 nM

Compound: Cc1cc2c(cc1CC(=O)c1sccc1S(=O)(=O)Nc1onc(C)c1Cl)OCO2 [THELIN]
- Selectivity as an antagonist for ETA compared to ETB (ETA [6]): approximately 6,500 fold
- Effect of sildenafil administration on sitaxsentan levels / pharmacokinetics [4]: does not appear to impact
- Cytochrome P450 3A4 inhibition (cytochrome P450 3A4): weak
- Side effects [7]: liver dysfunction (increased ALT and AST), headache, edema, constipation, nasal congestion and flushing

Compound: COc1nc(C)cnc1NS(=O)(=O)c1cccnc1-c1ccc(CC(C)(C)C(=O)O)cc1 [ZD-1811]
- Ki (ETB [1]): > 2000 nM
- Selectivity (ETA [3]): 1500
- Ki (ETA [3]; estimated from the IC∞ value, read-out: Binding K1 (nM) to ETA, K1 estimated from the IC∞ value): 1.3 nM

Compound: FR-139317
- Ki (ETB [1]): 7300 nM

Compound: cyclo(D-Glu-L-Ala-allo-D-Ile-L-Leu-D-Trp) [BE-18257B]
- Inhibition of binding to receptors in tissues in which ETB predominates (ETB [8]): fails to inhibit binding
- IC50 (ETA [9]; aortic smooth muscle): 1400 nM
- IC50 (ETA [9]; cultured aortic smooth muscle cells): 500 nM
- IC50 (ETA [9]; ventricle membranes): 800 nM
